From publication PMC3401907, “Cellular Uptakes, Biostabilities and Anti-miR-210 Activities of Chiral Arginine-PNAs in Leukaemic K562 Cells” (Chembiochem, 2012)

Columns and labels:
[1] = test system: DNA2 (mismatched DNA, G→T); experiment: Melting temperature (Tm) of PNA:DNA duplexes, single-mismatch DNA; assay type: binding
Excerpt: (§1) Sequence selectivity is a very important issue in view of the use of PNAs in cellular systems, because partial hybridisation might occur with other unrelated miRNAs or, most importantly, with mRNA targets. We analysed the sequence selectivities of our PNAs with stricter models (DNA2 and RNA2) involving single base mismatches (G→T or G→U) located in the middle of the target sequences. In each case the sequence selectivity was confirmed by significant lowering of the melting temperature. The ranges of ΔTm due to the presence of these single mismatches were 8–21 °C for DNA, with the maximum drop in the case of PNA4 and the minimum observed in that of PNA6. For the latter it should be considered that the mismatch was facing the last chiral monomer, preventing the cooperative effect observed in the case of 2D-modifed highly constrained PNA.[22]
(§2) Measurements of Tm values: The Tm values were determined with a Lambda Bio 20 spectrophotometer and a Peltier PTP6 temperature programmer. Thermal denaturation profiles were measured by monitoring the absorbance at 260 nm from 18 to 90 °C with a heating rate of 1 °C min^−1 and recording every 0.1 °C. Measurement conditions: [PNA]=[DNA] or [RNA]=5 μM in PBS buffer [pH 7.0, NaCl (100 mM), NaH2PO4⋅H2O (10 mM), EDTA (0.1 mM)] with urea (5 M).

[2] = test system: RNA2 (mismatched RNA, G→U); experiment: Melting temperature (Tm) of PNA:RNA duplexes, single-mismatch RNA; assay type: binding; conditions: UV absorbance at 260 nm, PBS buffer pH 7 with urea 5 M, strand concentration 5 μM
Excerpt: as §1, §2

miR-210 = miR-210 content by RT-qPCR analysis; assay type: cell-based, human; conditions: K562 cells, 24 h
Protocol: K562 cells were treated with 15 nM mithramycin in the presence of a PNA (2 μM), and after 24 h RNA was isolated and miR-210 was assayed by RT-qPCR analysis. This type of test has been used to evaluate miR content in many studies because it allows the free-miR content to be evaluated. […] Figure 5 A and B reports the obtained data, showing that inhibition of miR bioavailability was induced both with the modified PNA and with the peptide-conjugated one, whereas in the case of PNA1 it was unchanged. […] This might be related to inhibition of pre-miR maturation or to unavailability of the miR to the qRT-PCR analysis due to strong complexation with the PNA. In either case the bioavailability of the miR for targeting other genes should be reduced.
Transfection procedures: Anti-miR-210 PNAs were directly added to the cellular medium to reach the indicated final concentrations. K562 cells were cultured in 24-well plates starting from the initial density of 30 000 cells per mL. MTH was administrated together with anti-miR PNAs.
RNA extraction: Cells were isolated by centrifugation at 1500 rpm for 10 min at 4 °C, washed in PBS and lysed in Tri-reagent (Sigma–Aldrich) according to the manufacturer's instructions. The isolated RNA was washed once with cold ethanol (75 %), dried and dissolved in ultrapure nuclease-free water.
Real-time quantitative PCR: For microRNA quantification with real-time RT-PCR reagents, the primers and probes were obtained from Applied Biosystems. Reverse transcriptase (RT) reactions were performed with a TaqMan MicroRNA Reverse Transcription Kit (Applied Biosystems) for hsa-miR-210, hsa-miR-10a, hsa-miR-93, hsa-miR-99b, hsa-miR-126, hsa-miR-149, hsa-miR-424, hsa-miR-483-5p, hsa-miR-625, hsa-let-7c and the iQTM5 real-time PCR System Instrument (Bio-Rad). Relative expression was calculated by the comparative cycle threshold method and U6 microRNA was used as reference gene to normalise all RNA samples, because it is constant in the assayed samples by miR-profiling and quantitative RT-PCR analysis as previously reported.[25]

H-C5LArgC5LArgG5LArgC5LArgT5LArgG5LArgT5LArgC5LArgACACGCACAG-NH2 [PNA4, 5L Arg (C5) backbone-modified 18-mer PNA, model 2, stretch of consecutive modified monomers]
ΔTm due to single mismatch, DNA ([1]; DNA1 vs DNA2 (G→T in the middle of the target), urea 5 M): 21 °C
Tm, DNA2 in urea (5 M) ([1]; single mismatch, UV absorbance at 260 nm, PBS buffer pH 7 with urea 5 M, strand concentration 5 μM): 56 °C
Tm, RNA2 in urea (5 M) [2]: 75 °C
miR-210 inhibition upon treatment with mithramycin (miR-210; PNA 2 μM with MTH 15 nM, relative to pept-1 and MTH): best results
inhibition of miR-210 bioavailability (miR-210 content) (miR-210; PNA 2 μM, Figure 5 A and B, relative to pept-1): Stronger inhibition
